The values below come from US10100097B2, “GIP-GLP-1 dual agonist compounds and methods” (Zealand Pharma A/S, priority 2012, dated 2018).

Numbered stars: 1 amine (or outer) side, 2 acyl side, 3 side chain; on linkers, the order of the positions; unused ones are H or OH. Square brackets hold non-standard residues; d marks the D form. Side chains are listed from the residue outwards. Peptide text beside a SMILES is read from it. * marks the point of attachment. γGlu = O=C(O)[C@H](CCC(=O)[*:2])N[*:1]; 1Nal = N[C@@H](Cc1cccc2ccccc12)C(=O)O; Palmitoyl = CCCCCCCCCCCCCCCC(=O)*; Aib = CC(C)(N)C(=O)O

T1 sequence (P43220 24-463): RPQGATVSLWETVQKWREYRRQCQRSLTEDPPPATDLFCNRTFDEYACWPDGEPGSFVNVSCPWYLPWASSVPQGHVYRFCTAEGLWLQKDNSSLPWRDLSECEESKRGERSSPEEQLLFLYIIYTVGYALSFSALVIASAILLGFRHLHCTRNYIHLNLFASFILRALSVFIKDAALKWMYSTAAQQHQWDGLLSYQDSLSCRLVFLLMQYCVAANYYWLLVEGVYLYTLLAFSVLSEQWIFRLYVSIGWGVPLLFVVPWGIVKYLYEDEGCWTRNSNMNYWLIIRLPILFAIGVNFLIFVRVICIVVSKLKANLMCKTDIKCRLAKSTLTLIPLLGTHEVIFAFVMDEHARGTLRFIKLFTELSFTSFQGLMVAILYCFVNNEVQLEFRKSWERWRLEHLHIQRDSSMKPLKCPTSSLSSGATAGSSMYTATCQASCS

The experiment concerns the target T1, human GLP-1 R (Homo sapiens, UniProt P43220).
T1 construct: expressed in transfected cells
The experiment in a line: Human GLP-1 receptor (GLP-1 R) activity assay, cAMP induction (AlphaScreen cAMP kit). It counts as cell-based. As to conditions: HEK293 cells expressing the human GLP-1 R, 15 min at 37° C., average values of multiple determinations, read-out: GLP1 R (EC50 in nM). Here is the method:
Human GIP Receptor (GIP R) and GLP-1 Receptor (GLP-1 R) Activity Assay
In vitro effects of peptide conjugates of the invention were assessed by measuring the induction of cAMP following stimulation of the respective receptor by GIP, GLP1 or analogues of these, as outlined in the invention, using the AlphaSceen® cAMP kit from Perkin-Elmer according to instructions. Briefly. HEK293 cells expressing the human GIP R or GLP-1 R (stable cell lines generated through transfection of the cDNA for human GIP R or GLP-1 and selection of stable clones) were seeded at 30,000 cells/well in 96-well microtiter plates coated with 0.01% poly-L-lysine, and grown for 1 day in culture in 200 μl growth medium (DMEM, 10% FCS, Penicillin (100 IU/ml), Streptomycin (100 μg/ml)). On the day of analysis, growth medium was removed and the cells were washed once with […] Tyrode's buffer (Tyrode's Salts (9.6 g/1), 10 mM HEPES, pH 7.4). […] The Assay buffer was removed and cells are lysed in 80 μl Lysis buffer (0.1% w/v BSA, 5 mM HEPES, 0.3% v/v Tween-20) per well. From each well 10 μl lysed cells was transferred to a 384-well plate and mixed with 15 μl bead-mix (1 Unit/15 μl anti-cAMP Acceptor Beads, 1 Unit/15 μl Donor Beads, and 1 Unit/15 μl Biotinylated cAMP in Assay Buffer). The plates were mixed and incubated in the dark for an hour at room temperature before measuring using an Envision™ plate reader (Perkin-Elmer).
In general terms: Alpha assays give light when donor and acceptor beads are brought close together.
A word on the EC50: it is the midpoint of the concentration-response curve. As for `CCCCCCCCCCCCCCCC(=O)N[C@@H](CCC(=O)NCCCC[C@H](NC(=O)[C@H](CO)NC(=O)[C@H](CC(=O)O)NC(=O)[C@H](CC(C)C)NC(=O)[C@H](Cc1ccc(O)cc1)NC(=O)[C@H](CCCCN)NC(=O)[C@H](CO)NC(=O)[C@H](Cc1ccc(O)cc1)NC(=O)[C@H](CC(=O)O)NC(=O)[C@H](CO)NC(=O)[C@@H](NC(=O)[C@H](Cc1ccccc1)NC(=O)[C@@H](NC(=O)CNC(=O)[C@H](CCC(=O)O)NC(=O)C(C)(C)NC(=O)[C@@H](N)Cc1ccc(O)cc1)[C@@H](C)O)[C@@H](C)O)C(=O)N[C@@H](C)C(=O)N[C@@H](C)C(=O)N[C@@H](Cc1c[nH]cn1)C(=O)N[C@@H](CC(=O)O)C(=O)N[C@@H](Cc1ccccc1)C(=O)N[C@H](C(=O)N[C@@H](CCC(=O)O)C(=O)N[C@@H](Cc1c[nH]c2ccccc12)C(=O)N[C@@H](CC(C)C)C(=O)N[C@@H](CC(C)C)C(=O)N[C@@H](CCCNC(=N)N)C(=O)N[C@@H](C)C(N)=O)C(C)C)C(=O)O` [Compound 51] (H-Y[Aib]EGTFTSDYSKYLDSK([γGlu-Palmitoyl])AAHDFVEWLLRA-NH2), the EC50 came out at 0.11 nM.
Consider `CCCCCCCCCCCCCCCC(=O)N[C@@H](CCC(=O)NCCCC[C@H](NC(=O)[C@H](CO)NC(=O)[C@H](CC(=O)O)NC(=O)[C@H](CC(C)C)NC(=O)[C@H](Cc1ccc(O)cc1)NC(=O)[C@H](CCCCN)NC(=O)[C@H](CO)NC(=O)[C@H](Cc1ccc(O)cc1)NC(=O)[C@H](CC(=O)O)NC(=O)[C@H](CO)NC(=O)[C@@H](NC(=O)[C@H](Cc1ccccc1)NC(=O)[C@@H](NC(=O)CNC(=O)[C@H](CCC(=O)O)NC(=O)C(C)(C)NC(=O)[C@@H](N)Cc1ccc(O)cc1)[C@@H](C)O)[C@@H](C)O)C(=O)N[C@@H](C)C(=O)N[C@@H](C)C(=O)N[C@@H](Cc1c[nH]cn1)C(=O)N[C@@H](CC(=O)O)C(=O)N[C@@H](Cc1ccccc1)C(=O)N[C@H](C(=O)N[C@@H](CCC(=O)O)C(=O)N[C@@H](Cc1c[nH]c2ccccc12)C(=O)N[C@@H](CC(C)C)C(=O)N[C@@H](CC(C)C)C(=O)N[C@@H](CO)C(=O)N[C@@H](C)C(N)=O)C(C)C)C(=O)O` [Compound 45] (H-Y[Aib]EGTFTSDYSKYLDSK([γGlu-Palmitoyl])AAHDFVEWLLSA-NH2), for which the EC50 came to 0.11 nM.
Turning to `CC[C@H](C)[C@H](NC(=O)[C@H](CO)NC(=O)[C@H](Cc1ccc(O)cc1)NC(=O)[C@H](CC(=O)O)NC(=O)[C@H](CO)NC(=O)[C@@H](NC(=O)[C@H](Cc1ccccc1)NC(=O)[C@@H](NC(=O)CNC(=O)[C@H](CCC(=O)O)NC(=O)C(C)(C)NC(=O)[C@@H](N)Cc1ccc(O)cc1)[C@@H](C)O)[C@@H](C)O)C(=O)N[C@@H](Cc1ccc(O)cc1)C(=O)N[C@@H](CC(C)C)C(=O)N[C@@H](CC(=O)O)C(=O)N[C@@H](CCC(=O)O)C(=O)N[C@@H](CCCCN)C(=O)N[C@@H](C)C(=O)N[C@@H](C)C(=O)N[C@@H](CCCCN)C(=O)N[C@@H](CC(=O)O)C(=O)N[C@@H](Cc1ccccc1)C(=O)N[C@H](C(=O)N[C@@H](CCC(=O)O)C(=O)N[C@@H](Cc1c[nH]c2ccccc12)C(=O)N[C@@H](CC(C)C)C(=O)N[C@@H](CC(C)C)C(=O)N[C@@H](CO)C(=O)N[C@@H](C)C(N)=O)C(C)C` [Compound 40] (H-Y[Aib]EGTFTSDYSIYLDEKAAKDFVEWLLSA-NH2), the EC50 worked out at 0.022 nM.
Turning to `CC[C@H](C)[C@H](NC(=O)[C@H](CO)NC(=O)[C@H](Cc1ccc(O)cc1)NC(=O)[C@H](CC(=O)O)NC(=O)[C@H](CO)NC(=O)[C@@H](NC(=O)[C@H](Cc1ccccc1)NC(=O)[C@@H](NC(=O)CNC(=O)[C@H](CCC(=O)O)NC(=O)C(C)(C)NC(=O)[C@@H](N)Cc1ccc(O)cc1)[C@@H](C)O)[C@@H](C)O)C(=O)N[C@@H](Cc1ccc(O)cc1)C(=O)N[C@@H](CC(C)C)C(=O)N[C@@H](CCC(=O)O)C(=O)N[C@@H](CO)C(=O)N[C@@H](CCCCN)C(=O)N[C@@H](C)C(=O)N[C@@H](C)C(=O)N[C@@H](Cc1c[nH]cn1)C(=O)N[C@@H](CC(=O)O)C(=O)N[C@@H](Cc1ccccc1)C(=O)N[C@H](C(=O)N[C@@H](CCC(=O)O)C(=O)N[C@@H](Cc1c[nH]c2ccccc12)C(=O)N[C@@H](CC(C)C)C(=O)N[C@@H](CC(C)C)C(=O)N[C@@H](CO)C(=O)N[C@@H](C)C(N)=O)C(C)C` [Compound 41] (H-Y[Aib]EGTFTSDYSIYLESKAAHDFVEWLLSA-NH2), the EC50 turned out to be 0.011 nM.
Regarding `CC[C@H](C)[C@H](NC(=O)[C@H](CO)NC(=O)[C@H](Cc1ccc(O)cc1)NC(=O)[C@H](CC(=O)O)NC(=O)[C@H](CO)NC(=O)[C@@H](NC(=O)[C@H](Cc1ccccc1)NC(=O)[C@@H](NC(=O)CNC(=O)[C@H](CCC(=O)O)NC(=O)C(C)(C)NC(=O)[C@@H](N)Cc1ccc(O)cc1)[C@@H](C)O)[C@@H](C)O)C(=O)N[C@@H](Cc1ccc(O)cc1)C(=O)N[C@@H](CC(C)C)C(=O)N[C@@H](CC(=O)O)C(=O)N[C@@H](CCCCN)C(=O)N[C@@H](CCCCN)C(=O)N[C@@H](C)C(=O)N[C@@H](CCC(N)=O)C(=O)N[C@@H](CCCNC(=N)N)C(=O)N[C@@H](C)C(=O)N[C@@H](Cc1ccccc1)C(=O)N[C@H](C(=O)N[C@@H](CCCCN)C(=O)N[C@@H](Cc1c[nH]c2ccccc12)C(=O)N[C@@H](CC(C)C)C(=O)N[C@@H](CC(C)C)C(=O)N[C@@H](C)C(=O)NC(C)(C)C(=O)N[C@@H](CCCCN)C(N)=O)C(C)C` [Compound 20] (H-Y[Aib]EGTFTSDYSIYLDKKAQRAFVKWLLA[Aib]K-NH2), the EC50 stood at 0.009 nM.
On to `CC[C@H](C)[C@H](NC(=O)[C@H](CO)NC(=O)[C@H](Cc1ccc(O)cc1)NC(=O)[C@H](CC(=O)O)NC(=O)[C@H](CO)NC(=O)[C@@H](NC(=O)[C@H](Cc1ccccc1)NC(=O)[C@@H](NC(=O)CNC(=O)[C@H](CCC(=O)O)NC(=O)C(C)(C)NC(=O)[C@@H](N)Cc1ccc(O)cc1)[C@@H](C)O)[C@@H](C)O)C(=O)N[C@@H](Cc1ccc(O)cc1)C(=O)N[C@@H](CC(C)C)C(=O)N[C@@H](CC(=O)O)C(=O)N[C@@H](CO)C(=O)N[C@@H](CCCCN)C(=O)N[C@@H](C)C(=O)N[C@@H](C)C(=O)N[C@@H](Cc1c[nH]cn1)C(=O)N[C@@H](CC(=O)O)C(=O)N[C@@H](Cc1ccccc1)C(=O)N[C@H](C(=O)N[C@@H](CCC(=O)O)C(=O)N[C@@H](Cc1c[nH]c2ccccc12)C(=O)N[C@@H](CC(C)C)C(=O)N[C@@H](CC(C)C)C(=O)N[C@@H](CO)C(=O)N[C@@H](C)C(=O)NCC(=O)N1CCC[C@H]1C(=O)N[C@@H](CO)C(=O)N[C@@H](CO)C(=O)NCC(=O)N[C@@H](C)C(=O)N1CCC[C@H]1C(=O)N1CCC[C@H]1C(=O)N1CCC[C@H]1C(=O)N[C@@H](CO)C(N)=O)C(C)C` [Compound 55] (H-Y[Aib]EGTFTSDYSIYLDSKAAHDFVEWLLSAGPSSGAPPPS-NH2), for which the EC50 amounted to 0.0087 nM.
`CC[C@H](C)[C@H](NC(=O)[C@H](CO)NC(=O)[C@H](Cc1ccc(O)cc1)NC(=O)[C@H](CC(=O)O)NC(=O)[C@H](CO)NC(=O)[C@@H](NC(=O)[C@H](Cc1ccccc1)NC(=O)[C@@H](NC(=O)CNC(=O)[C@H](CCC(=O)O)NC(=O)C(C)(C)NC(=O)[C@@H](N)Cc1ccc(O)cc1)[C@@H](C)O)[C@@H](C)O)C(=O)N[C@@H](Cc1ccc(O)cc1)C(=O)N[C@@H](CC(C)C)C(=O)N[C@@H](CC(=O)O)C(=O)N[C@@H](CO)C(=O)N[C@@H](CCCCN)C(=O)N[C@@H](C)C(=O)N[C@@H](CCCCN)C(=O)N[C@@H](CCCNC(=N)N)C(=O)N[C@@H](C)C(=O)N[C@@H](Cc1ccccc1)C(=O)N[C@H](C(=O)N[C@@H](CC(N)=O)C(=O)N[C@@H](Cc1c[nH]c2ccccc12)C(=O)N[C@@H](CC(C)C)C(=O)N[C@@H](CC(C)C)C(=O)N[C@@H](C)C(=O)NC(C)(C)C(=O)N[C@@H](CCCCN)C(N)=O)C(C)C` [Compound 18] (H-Y[Aib]EGTFTSDYSIYLDSKAKRAFVNWLLA[Aib]K-NH2): the EC50 came to 0.015 nM.
With `CC[C@H](C)[C@H](NC(=O)[C@H](CO)NC(=O)[C@H](Cc1ccc(O)cc1)NC(=O)[C@H](CC(=O)O)NC(=O)[C@H](CO)NC(=O)[C@@H](NC(=O)[C@H](Cc1ccccc1)NC(=O)[C@@H](NC(=O)CNC(=O)[C@H](CCC(=O)O)NC(=O)C(C)(C)NC(=O)[C@@H](N)Cc1ccc(O)cc1)[C@@H](C)O)[C@@H](C)O)C(=O)N[C@@H](Cc1ccc(O)cc1)C(=O)N[C@@H](CC(C)C)C(=O)N[C@@H](CC(=O)O)C(=O)N[C@@H](CCCCN)C(=O)N[C@@H](CCCCN)C(=O)N[C@@H](C)C(=O)N[C@@H](CCC(N)=O)C(=O)N[C@@H](CCCNC(=N)N)C(=O)N[C@@H](C)C(=O)N[C@@H](Cc1ccccc1)C(=O)N[C@H](C(=O)N[C@@H](CC(N)=O)C(=O)N[C@@H](Cc1c[nH]c2ccccc12)C(=O)N[C@@H](CC(C)C)C(=O)N[C@@H](CC(C)C)C(=O)N[C@@H](C)C(=O)NC(C)(C)C(=O)N[C@@H](CCCCN)C(=O)N[C@@H](Cc1ccc(O)cc1)C(=O)NCC(=O)N[C@@H](Cc1cccc2ccccc12)C(=O)N[C@@H](CC(C)C)C(=O)N[C@@H](CC(=O)O)C(=O)N[C@@H](Cc1ccccc1)C(N)=O)C(C)C` [Compound 25] (H-Y[Aib]EGTFTSDYSIYLDKKAQRAFVNWLLA[Aib]KYG[1Nal]LDF-NH2), the EC50 came out at 0.041 nM.
